Target: CDK12 wt/CycK (Homo sapiens (Human), UniProt Q9NYV4)
Experiment: Radiometric protein kinase assay (33PanQinase Activity Assay), Assay Condition A (thiol containing conditions)
Type: biochemical
Conditions: thiol containing conditions (1.2 mM DTT), ATP at apparent Km
Method: Objective: The IC50 profile of test compounds was determined using three protein kinases.
Test compounds: The compounds were provided as pre-weighed powders in vials. The compounds were dissolved to 1×10^−02M by adding DMSO. 100 μl of each of the resulting stock solutions were transferred into column 2 of four 96 well “master plates”.
Prior to testing, the 1×10^−02M stock solutions in column 2 of the master plates were subjected to a serial, semi-logarithmic dilution using 100% DMSO as a solvent. […] Column 1 and 7 were filled with 100% DMSO as controls. […]
The reaction cocktails were incubated at 30° C. for 60 minutes. […] Incorporation of ^33Pi was determined with a microplate scintillation counter (Microbeta, Wallac). […]
Evaluation of raw data: The median value of the counts in column 1 (n=8) of each assay plate was defined as “low control”. This value reflects unspecific binding of radioactivity to the plate in the absence of a protein kinase but in the presence of the substrate. […]
As part of the data evaluation the low control value from a particular plate was subtracted from the high control value as well as from all 80 “compound values” of the corresponding plate. The residual activity (in %) for each well of a particular plate was calculated by using the following formula: Res. Activity (%)=100×[(cpm of compound−low control)/(high control−low control)] […]

Chain of CDK12 wt/CycK (Q9NYV4 whole entry): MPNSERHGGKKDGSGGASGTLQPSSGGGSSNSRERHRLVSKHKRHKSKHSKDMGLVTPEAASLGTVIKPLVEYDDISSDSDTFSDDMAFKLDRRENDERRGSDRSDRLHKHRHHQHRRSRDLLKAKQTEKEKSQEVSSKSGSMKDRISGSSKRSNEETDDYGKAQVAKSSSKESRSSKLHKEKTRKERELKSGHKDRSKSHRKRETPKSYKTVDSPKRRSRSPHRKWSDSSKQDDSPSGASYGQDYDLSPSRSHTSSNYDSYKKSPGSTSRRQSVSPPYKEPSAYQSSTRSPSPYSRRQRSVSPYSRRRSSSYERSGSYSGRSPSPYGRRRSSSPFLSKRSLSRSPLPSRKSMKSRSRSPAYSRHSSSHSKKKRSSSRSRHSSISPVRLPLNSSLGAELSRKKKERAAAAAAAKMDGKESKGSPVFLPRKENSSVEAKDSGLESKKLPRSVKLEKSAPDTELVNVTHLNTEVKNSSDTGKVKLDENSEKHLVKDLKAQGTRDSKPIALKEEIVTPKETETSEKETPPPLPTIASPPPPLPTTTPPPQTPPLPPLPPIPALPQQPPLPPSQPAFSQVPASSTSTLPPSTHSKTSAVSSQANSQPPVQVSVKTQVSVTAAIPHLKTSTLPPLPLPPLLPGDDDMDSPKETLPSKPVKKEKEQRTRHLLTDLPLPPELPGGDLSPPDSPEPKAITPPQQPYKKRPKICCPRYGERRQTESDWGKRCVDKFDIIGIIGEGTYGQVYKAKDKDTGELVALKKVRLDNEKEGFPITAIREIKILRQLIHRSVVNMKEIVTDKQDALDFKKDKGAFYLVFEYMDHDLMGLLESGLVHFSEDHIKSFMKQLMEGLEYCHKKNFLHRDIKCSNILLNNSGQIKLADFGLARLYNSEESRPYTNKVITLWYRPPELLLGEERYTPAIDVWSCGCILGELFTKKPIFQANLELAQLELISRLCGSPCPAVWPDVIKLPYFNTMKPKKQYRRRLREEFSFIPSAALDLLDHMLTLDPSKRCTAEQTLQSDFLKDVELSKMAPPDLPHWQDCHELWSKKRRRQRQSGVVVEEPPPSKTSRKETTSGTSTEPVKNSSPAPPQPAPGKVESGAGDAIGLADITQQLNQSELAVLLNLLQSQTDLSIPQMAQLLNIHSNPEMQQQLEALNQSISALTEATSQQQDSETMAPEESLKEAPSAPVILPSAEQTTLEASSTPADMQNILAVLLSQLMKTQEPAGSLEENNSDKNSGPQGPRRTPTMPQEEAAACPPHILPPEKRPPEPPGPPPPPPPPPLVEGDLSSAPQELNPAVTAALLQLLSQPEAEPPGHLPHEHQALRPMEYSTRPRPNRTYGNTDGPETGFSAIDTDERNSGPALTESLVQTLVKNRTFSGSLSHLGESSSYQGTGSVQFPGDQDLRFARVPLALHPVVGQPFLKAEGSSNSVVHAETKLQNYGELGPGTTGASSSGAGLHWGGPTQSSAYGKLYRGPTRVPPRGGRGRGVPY
Chain of CDK12 wt/CycK (O75909 whole entry partner): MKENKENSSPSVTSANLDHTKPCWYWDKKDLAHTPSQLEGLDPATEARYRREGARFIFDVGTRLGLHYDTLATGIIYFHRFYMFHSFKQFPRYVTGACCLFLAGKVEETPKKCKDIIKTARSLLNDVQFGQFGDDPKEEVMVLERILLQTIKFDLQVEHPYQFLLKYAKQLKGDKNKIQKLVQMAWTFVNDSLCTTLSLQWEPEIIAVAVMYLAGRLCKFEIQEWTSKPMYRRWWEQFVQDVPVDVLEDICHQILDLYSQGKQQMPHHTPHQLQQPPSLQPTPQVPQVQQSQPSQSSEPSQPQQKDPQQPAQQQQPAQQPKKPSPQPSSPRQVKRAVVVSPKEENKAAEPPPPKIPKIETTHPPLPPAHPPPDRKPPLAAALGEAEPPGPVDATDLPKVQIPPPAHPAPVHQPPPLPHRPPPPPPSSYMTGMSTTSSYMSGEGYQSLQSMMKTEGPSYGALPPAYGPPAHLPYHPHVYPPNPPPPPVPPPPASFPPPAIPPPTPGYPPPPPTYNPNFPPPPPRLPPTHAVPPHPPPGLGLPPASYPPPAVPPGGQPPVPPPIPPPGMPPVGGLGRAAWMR

Compound	IC50 [nM]
COc1nc(N[C@@H]2CCN(C(=O)c3ccc(NC(=O)/C=C/CN4CC[C@@H](F)C4)cn3)C2)ncc1Cl [Example 170, (E)-N-(6-((R)-3-((5-chloro-4-methoxypyrimidin-2-yl)amino)pyrrolidine-1-carbonyl)pyridin-3-yl)-4-((R)-3-fluoropyrrolidin-1-yl)but-2-enamide]	100 to 1000
(R)—N-(3-(3-((5-chloropyrimidin-2-yl)amino)pyrrolidine-1-carbonyl)phenyl)-2-cyano-3-(dimethylamino)acrylamide [Example 135]	1000 to 10000

From US11390618B2, “Inhibitors of cyclin-dependent kinases” (Kinnate Biopharma Inc., priority 2018, dated 2022)
